Data: paper PMC8078834 (FASEB journal : official publication of the Federation of …, 2021)

Target: myeloperoxidase (MPO) (Homo sapiens, UniProt P05164)
Assay: microscale thermophoresis
Assay type: binding

Sequence of myeloperoxidase (MPO) (P05164 165-273): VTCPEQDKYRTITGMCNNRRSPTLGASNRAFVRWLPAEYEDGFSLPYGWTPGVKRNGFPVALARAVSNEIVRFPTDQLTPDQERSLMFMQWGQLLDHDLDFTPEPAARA
Sequence of myeloperoxidase (MPO) (P05164 279-745): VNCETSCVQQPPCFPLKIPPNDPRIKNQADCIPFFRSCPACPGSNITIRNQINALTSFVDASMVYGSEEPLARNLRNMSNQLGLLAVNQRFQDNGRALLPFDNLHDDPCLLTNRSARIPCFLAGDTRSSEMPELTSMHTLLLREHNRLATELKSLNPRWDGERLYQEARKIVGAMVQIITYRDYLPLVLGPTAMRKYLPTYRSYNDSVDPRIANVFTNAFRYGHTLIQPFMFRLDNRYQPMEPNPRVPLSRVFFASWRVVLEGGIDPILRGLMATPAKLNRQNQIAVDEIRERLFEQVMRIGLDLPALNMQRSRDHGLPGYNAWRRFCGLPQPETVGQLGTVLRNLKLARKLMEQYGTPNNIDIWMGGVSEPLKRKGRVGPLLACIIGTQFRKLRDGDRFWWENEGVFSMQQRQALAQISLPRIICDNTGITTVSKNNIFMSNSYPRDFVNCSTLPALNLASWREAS

Structure (SMILES): c1ccc2[nH]ccc2c1 [indole, 1H-indole]
- Kd: 272 ± 77.4 µM
